Assay results taken from US20140272041A1, “METHODS OF REDUCING PATHOGENS DURING PROCESSING OR POST-PROCESSING OF BEEF, POULTRY AND OTHER MEAT PRODUCTS” (BIRKO Corporation, priority 2009, published 2014).
Read-outs that look alike come from different tables or passages of the source.

How the values were obtained:
[1] = test system: E. coli ATCC 43888 (O157:H7); assay: Log kill in aqueous bacterial suspension, plating on TSA; format: cell-based, Escherichia coli
E. coli ATCC 12435 = assay: Log kill / surviving titer in aqueous bacterial suspension, plating on TSA; format: cell-based, Escherichia coli; conditions: […] wt./wt. % WAC in 2.5% lactic acid, 15 seconds, 74 to 80 degrees F.
Protocol: The “reaction” (i.e. interaction of antimicrobial agent and the target organism) was initiated by the addition of bacteria to the antimicrobial solution. The reaction was allowed to proceed for the respective time periods listed in Table I (i.e., at least 15 seconds each) and was terminated at the end of that time by adding quench buffer comprising 3.2 M potassium phosphate buffer, pH 7.2. The sample then was evaluated using serial 10-fold dilutions into sterile phosphate buffer as needed to determine, on Tryptic Soy agar (“TSA”), the titer of surviving bacteria. TSA is a medium that allows the growth of most bacteria.
The reduction in the bacterial count is expressed as the “log kill” which is defined as log10 [initial cfu/ml]−log10 [remaining cfu/ml]; where “cfu” refers to “colony forming unit.” All log kills reported herein are positive “base 10.”). Inasmuch as the standard assay mixture contained only ca. 25×10^6 cfu initially (equivalent to 7.398 log) the theoretical maximum kill that can be measured with this assay system is ca. 7.4 log and the practical measuring limit is ca. 6 log. Therefore, high levels of log reduction were monitored by plating reaction mixtures directly (without dilution) onto agar medium. The results are reported in Table I and illustrated in graph format in FIG. 1. […] The tests were replicated with E. coli ATCC 43888, a pathogenic strain of E. coli O157:H7. […]
After incubation for 15 seconds at ambient temperature the reaction was quenched by addition of phosphate buffer and the titer of surviving bacteria was determined by plating on TSA as described in the previous examples. […] The amphoteric and zwitterionic surfactants, which carry a net positive charge under the conditions of the reaction mixture, caused enhancement of the log kill by lactic acid. All anionic surfactants tested caused substantial enhancement of the log kill by lactic acid.

[2] = test system: Salmonella enterica, ATCC 14028; assay: Log kill in aqueous bacterial suspension, plating on TSA; format: cell-based; conditions: 15 seconds, c. 74° F.
Protocol: As before, reaction mixtures were incubated for 15 seconds at room temperature (c. 74° F.). The results are depicted in Table XII and graphed in FIG. 12.
However, in this example the effectiveness of such mixtures was tested against Salmonella enterica, ATCC 14028. […] The balance was water. Increasing amounts of these “reagents” were added to a series of reaction tubes.
As before each reaction was initiated by the addition of bacteria, incubated at ambient temperature for 15 seconds and terminated by addition of quench buffer. The tests were performed at room temperature. The bacterial titer of each mixture was determined by preparation and plating of serial dilutions on TSA. The results for both reagents are reported in Table XIII and graphed in FIG. 13.

[3] = test system: Escherichia coli serotype O157:H7 (ATCC 43888); assay: Log reduction on inoculated meat samples by immersion
Protocol: Meat samples were allowed to equilibrate to ambient temperature (74° F.) and inoculated with 25 μl of a late log phase culture of either Escherichia coli serotype O157:H7 (ATCC 43888) or Salmonella enterica serovar Typhimurium (ATCC 14028). Samples were allowed to rest for 10 minutes for the bacteria to attach. After attachment the inoculated samples were immersed in the treatment solutions as detailed in each experiment described below. After immersion, meat samples were immediately placed into a sterile Whirlpack Bag with 10-15 ml of neutralizing buffer to inactivate any residual antimicrobial on the meat surface. Samples were massaged for 3 minutes to extract surviving bacteria from the meat. Bacterial counts in the fluid were enumerated by plating on Violet Red Bile Agar (E. coli) or Salmonella Shigella Agar (Salmonella) and counting colonies after at least 16-24 hours of incubation. […]

[4] = test system: Salmonella enterica serovar Typhimurium (ATCC 14028); assay: as above; conditions: 5% (w/w) total acid (60% lactic+40% citric acid) + 1200 ppm SLS, meat samples immersed 3 minutes at 108° F. (Meat Experiment #43)
Protocol: Meat samples were allowed to equilibrate to ambient temperature (74° F.) and inoculated with 25 μl of a late log phase culture of either Escherichia coli serotype O157:H7 (ATCC 43888) or Salmonella enterica serovar Typhimurium (ATCC 14028). Samples were allowed to rest for 10 minutes for the bacteria to attach. After attachment the inoculated samples were immersed in the treatment solutions as detailed in each experiment described below. After immersion, meat samples were immediately placed into a sterile Whirlpack Bag with 10-15 ml of neutralizing buffer to inactivate any residual antimicrobial on the meat surface. Samples were massaged for 3 minutes to extract surviving bacteria from the meat. Bacterial counts in the fluid were enumerated by plating on Violet Red Bile Agar (E. coli) or Salmonella Shigella Agar (Salmonella) and counting colonies after at least 16-24 hours of incubation.
The meat samples described in Example 16 were treated with 5% (w/w) total acid (60% lactic+40% citric acid) with addition of 1200 ppm of the anionic surfactant sodium lauryl sulfate (SLS) for 3 minutes at 108° F.

[5] = 1200 ppm SLS, 5% total acid at ratio 4:6 citric acid:lactic acid, 2 minutes at 109-111° F., control 5% lactic acid only
[6] = 1400 ppm SLS added to 5% total acid 60:40 lactic:citric, 3 minutes at 109° F.

## CCCCCCCCCCCCOS(=O)(=O)[O-].[Na+] [Sodium Lauryl Sulfate, sodium lauryl sulfate]
[1]
  Log Kill: 4.8 log
  in 2.5% Lactic Acid (Log Kill): 5.81 log
  in […] Lactic Acid (Log Kill): 5.83 log
[1]; sodium lauryl sulfate 0.004 wt./wt. % in […] lactic acid, 15 seconds, 75 degrees F.
  Log Kill: 2.08 log
[1]; sodium lauryl sulfate 0.012 wt./wt. % in […] lactic acid, 15 seconds, 75 degrees F.
  Log Kill: 5.92 log
[1]; sodium lauryl sulfate 0.016 wt./wt. % in […] lactic acid, 15 seconds, 75 degrees F.
  Log Kill: 5.92 log
[1]; sodium lauryl sulfate 0.02 wt./wt. % in 2.5% lactic acid
  in 2.5% Lactic Acid (Log Kill): 4.81 log
[1]; sodium lauryl sulfate 0.04 wt./wt. % in 2.5% lactic acid
  in 2.5% Lactic Acid (Log Kill): 4.81 log
[1]; sodium lauryl sulfate 0.04 wt./wt. % in […] lactic acid, 15 seconds, 75 degrees F.
  in […] Lactic Acid (Log Kill): 5.83 log
[1]; sodium lauryl sulfate 0.06 wt./wt. % in 2.5% lactic acid
  in 2.5% Lactic Acid (Log Kill): 5.81 log
[1]; sodium lauryl sulfate 0.06 wt./wt. % in […] lactic acid, 15 seconds, 75 degrees F.
  in […] Lactic Acid (Log Kill): 5.34 log
[1]; sodium lauryl sulfate 0.10 wt./wt. % in 2.5% lactic acid
  in 2.5% Lactic Acid (Log Kill): 5.81 log
[1]; sodium lauryl sulfate 0.10 wt./wt. % in […] lactic acid, 15 seconds, 75 degrees F.
  in […] Lactic Acid (Log Kill): 5.83 log
E. coli ATCC 12435
  Log Kill (Lactic Acid + Surfactant): 6.43 log
[2]; sodium lauryl sulfate 0.004 wt./wt. % in […] lactic acid
  Log Kill: 3.82 log
[2]; sodium lauryl sulfate 0.008 wt./wt. % in […] lactic acid
  Log Kill: 4.4 log
[2]; sodium lauryl sulfate 0.012 wt./wt. % in […] lactic acid
  Log Kill: 5.489 log
[2]; sodium lauryl sulfate 0.016 wt./wt. % in […] lactic acid
  Log Kill: 5.489 log
[2]; sodium lauryl sulfate 0.020 wt./wt. % in […] lactic acid
  Log Kill: 5.97 log
[3]; 4% (w/w) lactic acid with 0-1700 ppm sodium lauryl sulfate, 2 minutes at 108° F.
  effect of increasing SLS concentration on kill by lactic acid: enhanced kill
[3]; [5]
  enhancement of reduction when SLS is included: ca. 1.6 log
  increase of microbial reduction when SLS is included: 40 fold
[3]; [6]
  enhancement of reduction when SLS is included: ca. 1.6 log
  increase of microbial reduction when SLS is included: 40 fold
[4]
  Log Reduction: 3.28 log
